Measured values: patent US20250206718A1, “NITROGEN-CONTAINING HETEROCYCLIC DERIVATIVE INHIBITOR, PREPARATION METHOD THEREFOR AND USE THEREOF” (SHANGHAI HANSOH BIOMEDICAL CO., LTD., priority 2022, published 2025)

The molecules below were run against Ba/F3 EGFR Del19/C797S cells (Homo sapiens, UniProt P00533, C797S, cells depend on it, form not given) (assay: Cell proliferation inhibition (Cell Titer-Glo), Ba/F3 EGFR Del19/C797S). Conditions: 72 hours, CellTiter-Glo, read-out: Ba/F3 EGFR Del19/C797S IC50.
Ba/F3 EGFR Del19/C797S cells, sequence (P00533 with tags, fused parts or gaps DEL746-750/C797S, form open): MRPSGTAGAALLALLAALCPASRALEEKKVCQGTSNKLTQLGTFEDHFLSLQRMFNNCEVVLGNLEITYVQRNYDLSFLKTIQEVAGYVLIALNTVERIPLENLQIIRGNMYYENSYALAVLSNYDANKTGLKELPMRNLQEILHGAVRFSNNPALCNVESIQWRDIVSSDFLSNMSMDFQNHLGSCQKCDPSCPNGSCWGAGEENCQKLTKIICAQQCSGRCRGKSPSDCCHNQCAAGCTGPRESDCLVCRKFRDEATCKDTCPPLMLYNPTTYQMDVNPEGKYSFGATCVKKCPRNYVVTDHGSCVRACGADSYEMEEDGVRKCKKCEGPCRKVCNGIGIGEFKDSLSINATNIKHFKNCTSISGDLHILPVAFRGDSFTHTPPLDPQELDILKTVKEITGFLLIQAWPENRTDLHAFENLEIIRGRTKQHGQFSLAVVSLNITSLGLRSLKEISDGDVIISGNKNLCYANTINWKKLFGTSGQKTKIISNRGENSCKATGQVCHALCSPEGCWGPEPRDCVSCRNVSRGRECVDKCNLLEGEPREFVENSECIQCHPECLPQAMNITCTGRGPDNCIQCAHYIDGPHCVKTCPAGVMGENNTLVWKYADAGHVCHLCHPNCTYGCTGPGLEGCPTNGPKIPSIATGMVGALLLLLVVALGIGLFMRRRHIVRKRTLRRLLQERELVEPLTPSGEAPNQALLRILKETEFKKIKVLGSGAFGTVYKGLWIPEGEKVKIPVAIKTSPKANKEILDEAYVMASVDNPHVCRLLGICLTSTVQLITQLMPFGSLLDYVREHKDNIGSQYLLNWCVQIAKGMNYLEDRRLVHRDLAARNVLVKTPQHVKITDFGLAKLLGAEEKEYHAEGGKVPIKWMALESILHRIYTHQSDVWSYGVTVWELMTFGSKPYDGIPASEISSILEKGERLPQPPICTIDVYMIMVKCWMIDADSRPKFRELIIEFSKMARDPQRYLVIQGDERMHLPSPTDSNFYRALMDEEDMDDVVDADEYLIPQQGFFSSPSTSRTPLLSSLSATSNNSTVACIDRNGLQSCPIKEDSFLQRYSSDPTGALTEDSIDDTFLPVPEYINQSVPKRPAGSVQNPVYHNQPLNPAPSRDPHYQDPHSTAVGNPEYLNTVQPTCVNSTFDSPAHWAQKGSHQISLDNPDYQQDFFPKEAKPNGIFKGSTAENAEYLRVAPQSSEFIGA
Format: cell-based, mouse
Source text: Experimental objective: The objective of this test example is to test the inhibitory activity of compounds on the proliferation of different EGFR C797S drug-resistant mutant cell lines Ba/F3 EGFR Del19/T790M/C797S, Ba/F3 EGFR L858R/T790M/C797S, and Ba/F3 EGFR Del19/C797S.
• Ba/F3 EGFR Del19/T790M/C797S cells were purchased from KYinno Biotechnology Co., Ltd.; • Ba/F3 EGFR Del19/C797S cells were purchased from CoBioer Biosciences Co., Ltd.; • Ba/F3 EGFR L858R/T790M/C797S cells were purchased from CoBioer Biosciences Co., Ltd.; • Cell Titer-Glo was purchased from Promega, with a catalog number of G7573; • RPMI 1640 was purchased from Gibco, with a catalog number of 22400089; • FBS was purchased from Gibco, with a catalog number of 10091148; • cell culture plates were purchased from Corning, with a catalog number of 3610.
The inhibitory activity of the compound on the proliferation of different EGFR C797S drug-resistant mutant cell lines was detected using the Cell Titer-Glo method. The different cell lines were cultured in RPMI 1640 complete culture medium containing 10% FBS under conditions of 37° C. and 5% CO2, the cells were collected by centrifugation when growing to a certain density, and adjusted to appropriate cell density after counting, the cells were spread on a white 96-well plate at 90 μL/well, and cultured in a 37° C., 5% CO2 incubator overnight, prepared compound solutions of different concentrations were added at 10 μL/well, corresponding solvent controls were set, and all wells were cultured in a 37° C., 5% CO2 incubator for 72 hours, 50 μL of CellTiter-Glo solution was added to each well, shook and mixed evenly, and incubated in the dark for 10 minutes, and a BioTek Synergy H1 microplate reader was used for reading.
The luminescence signal value was used to calculate the inhibition rate. Graphpad Prism software was used to fit the concentration and inhibition rate to a nonlinear regression curve, so as to obtain the IC50 value, as shown in the Table below for details.

Compound	GI50 [nM]
CC(C)c1ccc(N2C[C@H](CS(C)(=O)=O)[C@H]2C)c2cnc(Nc3ccnc(-c4cn(C5CC6(COC6)C5)nc4Cl)n3)cc12 [Example 141, N-(2-(3-chloro-1-(2-oxaspiro[3.3]heptan-6-yl)-1H-pyrazol-4-yl)pyrimidin-4-yl)-5-isopropyl-8-((2R,3S)-2-methyl-3-((methanesulfonyl)methyl)azetidin-1-yl)isoquinolin-3-amine]	64
CC(C)c1ccc(N2C[C@H](CS(C)(=O)=O)[C@H]2C)c2cnc(Nc3ccnc(-c4cn(C[C@@H]5CCCO5)nc4Cl)n3)cc12 [Example 145, N-(2-(3-chloro-1-(((S)-tetrahydrofuran-2-yl)methyl)-1H-pyrazol-4-yl)pyrimidin-4-yl)-5-isopropyl-8-((2R,3S)-2-methyl-3-((methanesulfonyl)methyl)azetidin-1-yl)isoquinolin-3-amine]	45
CC(C)c1ccc(N2C[C@H](CS(C)(=O)=O)[C@H]2C)c2cnc(Nc3ccnc(-c4cn(C5CC6CN(C)CC6C5)nc4Cl)n3)cc12 (stereo partly drawn) [Example 150, N-(2-(3-chloro-1-(2-methyloctahydrocyclopentadieno[c]pyrrol-5-yl)-1H-pyrazol-4-yl)pyrimidin-4-yl)-5-isopropyl-8-((2R,3S)-2-methyl-3-((methanesulfonyl)methyl)azetidin-1-yl)isoquinolin-3-amine]	70
CC(C)c1c(N)cc(N2C[C@H](CS(C)(=O)=O)[C@H]2C)c2cnc(Nc3ccnc(-c4cn(C)nc4Cl)n3)cc12 [Example 169, N3-(2-(3-chloro-1-methyl-1H-pyrazol-4-yl)pyrimidin-4-yl)-5-isopropyl-8-((2R,3S)-2-methyl-3-((methanesulfonyl)methyl)azetidin-1-yl)isoquinoline-3,6-diamine]	52
CC(C)c1ccc(N2C[C@H](CS(C)(=O)=O)[C@H]2C)c2cnc(Nc3ccnc(-c4cn(CC(O)C(F)(F)F)nc4Cl)n3)cc12 (stereo partly drawn) [Example 113, 3-(3-chloro-4-(4-((5-isopropyl-8-((2R,3S)-2-methyl-3-((methanesulfonyl)methyl)azetidin-1-yl)isoquinolin-3-yl)amino)pyrimidin-2-yl)-1H-pyrazol-1-yl)-1,1,1-trifluoropropan-2-ol]	60
CC(C)c1ccc(N2C[C@H](CS(C)(=O)=O)[C@H]2C)c2cnc(Nc3ccnc(-c4cn(C5CC5)nc4F)n3)cc12 [Example 9, N-(2-(1-cyclopropyl-3-fluoro-1H-pyrazol-4-yl)pyrimidin-4-yl)-5-isopropyl-8-((2R,3S)-2-methyl-3-((methylsulfonyl)methyl)azetidin-1-yl)isoquinolin-3-amine]	57
CC(C)c1ccc(N2C[C@H](CS(C)(=O)=O)[C@H]2C)c2cnc(Nc3ccnc(-c4cn(C(C)CC#N)nc4Cl)n3)cc12 (stereo partly drawn) [Example 185, 3-(3-chloro-4-(4-((5-isopropyl-8-((2R,3S)-2-methyl-3-((methanesulfonyl)methyl)azetidin-1-yl)isoquinolin-3-yl)amino)pyrimidin-2-yl)-1H-pyrazol-1-yl)butyronitrile]	80
CC(C)c1ccc(N2C[C@H](CS(C)(=O)=O)[C@H]2C)c2cnc(Nc3ccnc(-c4cn(C5CCN(C)CC5)nc4Cl)n3)cc12 [Example 158, N-(2-(3-chloro-1-(1-methylpiperidin-4-yl)-1H-pyrazol-4-yl)pyrimidin-4-yl)-5-isopropyl-8-((2R,3S)-2-methyl-3-((methanesulfonyl)methyl)azetidin-1-yl)isoquinolin-3-amine]	50
CC(C)c1ccc(N2C[C@H](CS(C)(=O)=O)[C@H]2C)c2cnc(Nc3ccnc(-c4cn(C[C@H]5CCN5C)nc4Cl)n3)cc12 [Example 146, N-(2-(3-chloro-1-(((R)-1-methylazetidin-2-yl)methyl)-1H-pyrazol-4-yl)pyrimidin-4-yl)-5-isopropyl-8-((2R,3S)-2-methyl-3-((methanesulfonyl)methyl)azetidin-1-yl)isoquinolin-3-amine]	80
CC(C)c1ccc(N2C[C@H](CS(C)(=O)=O)[C@H]2C)c2cnc(Nc3ccnc(-c4cn(C(C)(C)C#N)nc4Cl)n3)cc12 [Example 112, 2-(3-chloro-4-(4-((5-isopropyl-8-((2R,3S)-2-methyl-3-((methanesulfonyl)methyl)azetidin-1-yl)isoquinolin-3-yl)amino)pyrimidin-2-yl)-1H-pyrazol-1-yl)-2-methylpropanenitrile]	52
CC(C)c1ccc(N2CC(N=S(C)(C)=O)C2)c2cnc(Nc3ccnc(-c4cn(C)nc4Cl)n3)cc12 [Example 102, ((1-(3-((2-(3-chloro-1-methyl-1H-pyrazol-4-yl)pyrimidin-4-yl)amino)-5-isopropylisoquinolin-8-yl)azetidin-3-yl)imino)dimethyl-16-sulfanone]	73
CC(C)c1ccc(N2C[C@H](CS(C)(=O)=O)[C@H]2C)c2cnc(Nc3ccnc(-c4cn(C(F)F)nc4Cl)n3)cc12 [Example 177, N-(2-(3-chloro-1-(difluoromethyl)-1H-pyrazol-4-yl)pyrimidin-4-yl)-5-isopropyl-8-((2R,3S)-2-methyl-3-((methanesulfonyl)methyl)azetidin-1-yl)isoquinolin-3-amine]	43

Results, then the molecule that gave them:

GI50 [nM]	Compound
42	CC(C)c1ccc(N2C[C@H](CS(C)(=O)=O)[C@H]2C)c2cnc(Nc3ccnc(-c4cn(C5CC(=O)C5)nc4Cl)n3)cc12 [Example 156, 3-(3-chloro-4-(4-((5-isopropyl-8-((2R,3S)-2-methyl-3-((methanesulfonyl)methyl)azetidin-1-yl)isoquinolin-3-yl)amino)pyrimidin-2-yl)-1H-pyrazol-1-yl)cyclobutan-1-one]
6	Cc1nn(C)cc1-c1nccc(Nc2cc3c(C(C)C)ncc(N4C[C@H](N(C)S(C)(=O)=O)[C@H]4C)c3cn2)n1 [Example 61, N-((2R,3S)-1-(7-((2-(1,3-dimethyl-1H-pyrazol-4-yl)pyrimidin-4-yl)amino)-1-isopropyl-2,6-diazanaphthalen-4-yl)-2-methylazetidin-3-yl)-N-methyl methanesulfonamide]
14	CC(C)c1ccc(N2C[C@H](N3CCOC3=O)[C@H]2C)c2cnc(Nc3ccnc(-c4cn(C)nc4Cl)n3)cc12 [Example 109, 3-((2R,3S)-1-(3-((2-(3-chloro-1-methyl-1H-pyrazol-4-yl)pyrimidin-4-yl)amino)-5-isopropylisoquinolin-8-yl)-2-methylazetidin-3-yl)oxazolidin-2-one]
19	CC(C)c1c(F)cc(N2CC(NS(C)(=O)=O)C2)c2cnc(Nc3ccnc(-c4cn(C)nc4Cl)n3)cc12 [Example 178, N-(1-(3-((2-(3-chloro-1-methyl-1H-pyrazol-4-yl)pyrimidin-4-yl)amino)-6-fluoro-5-isopropylisoquinolin-8-yl)azetidin-3-yl)methanesulfonamide]
14	CC(C)c1c(F)cc(N2CC(N(C)S(C)(=O)=O)C2)c2cnc(Nc3ccnc(-c4cn(C)nc4Cl)n3)cc12 [Example 124, N-(1-(3-((2-(3-chloro-1-methyl-1H-pyrazol-4-yl)pyrimidin-4-yl)amino)-6-fluoro-5-isopropylisoquinolin-8-yl)azetidin-3-yl)-N-methyl methanesulfonamide]
41	CC(C)c1ccc(N2C[C@H](CS(C)(=O)=O)[C@H]2C)c2cnc(Nc3ccnc(-c4cn([C@H]5CCOC5)nc4Cl)n3)cc12 [Example 142, N-(2-(3-chloro-1-((S)-tetrahydrofuran-3-yl)-1H-pyrazol-4-yl)pyrimidin-4-yl)-5-isopropyl-8-((2R,3S)-2-methyl-3-((methanesulfonyl)methyl)azetidin-1-yl)isoquinolin-3-amine]
7.4	CC(C)c1ncc(N2CC(N(C)S(C)(=O)=O)C2)c2cnc(Nc3ccnc(-c4cn(C)nc4Cl)n3)cc12 [Example 131, N-(1-(7-((2-(3-chloro-1-methyl-1H-pyrazol-4-yl)pyrimidin-4-yl)amino)-1-isopropyl-2,6-diazanaphthalen-4-yl)azetidin-3-yl)-N-methyl methanesulfonamide]
22	Cc1nn(C)cc1-c1nccc(Nc2cc3c(C(C)C)c(F)cc(N4CC(N(C)S(C)(=O)=O)C4)c3cn2)n1 [Example 129, N-(1-(3-((2-(1,3-dimethyl-1H-pyrazol-4-yl)pyrimidin-4-yl)amino)-6-fluoro-5-isopropylisoquinolin-8-yl)azetidin-3-yl)-N-methyl methanesulfonamide]
22	CC(C)c1ccc(N2C[C@H](CS(C)(=O)=O)[C@H]2C)c2cnc(Nc3ccnc(-c4cn(C5CC(O)C5)nc4Cl)n3)cc12 (stereo partly drawn) [Example 154A, 3-(3-chloro-4-(4-((5-isopropyl-8-((2R,3S)-2-methyl-3-((methanesulfonyl)methyl)azetidin-1-yl)isoquinolin-3-yl)amino)pyrimidin-2-yl)-1H-pyrazol-1-yl)cyclobutan-1-ol]
